Results on three compounds are retold here after US20190322960A1, “FRAGRANCE COMPOSITIONS AND METHODS OF USE THEREOF” (TAKASAGO INTERNATIONAL CORPORATION, priority 2016, published 2019).

In one experiment the test system is salivary alpha-amylase. The experiment in a line: Stress test (timed mathematical and word test), salivary alpha-amylase of panelists exposed to fragrance. Type of experiment: in vivo, human. The conditions noted are these: for effect on salivary alpha-amylase levels as compared to the DPG control (in words): exposed panelists, stress test; for % Change in Alpha-amylase (i.e., before versus after stress): panelists exposed during stress test, saliva before and immediately after stress test, DPG solvent, DPG control 51.9%. Here is the method: (§1) Stress was induced in each panelist using a timed mathematical and word test, which was administered to panelists in a small group competition setting to induce stress in each of the panelists. At set time intervals during the test, each panelist was exposed to either a single fragrance compound or to a DPG control.
(§2) Saliva was collected for each panelist before and immediately after the stress test. Saliva samples were assayed for salivary alpha-amylase activity and salivary cortisol levels using a commercially available assay kit (e.g., Salimetrics®).
Table 1-A summarizes the percent change (i.e., before stress versus after stress) in the salivary alpha-amylase levels of panelists exposed to fragrance compounds of the present disclosure during the stress test. In addition, the table illustrates the statistical significance of the change in alpha-amylase levels (i.e., p-value or probability value, P) of each of the fragrance compounds as compared to DPG, representing the change in the control (i.e., just DPG without a fragrance compound before stress and after stress).
(§3) Saliva was collected before and immediately after the stress test. Saliva samples were assayed for salivary alpha-amylase activity and salivary cortisol levels using a commercially available assay kit (e.g., Salimetrics®).
Table 5-A summarizes the percent change (i.e., before stress versus after stress) in the salivary alpha-amylase levels of panelists exposed to fragrance compounds of the present disclosure during the stress test. In addition, the table illustrates the statistical significance of the change in alpha-amylase levels (i.e., p-value or probability value, P) of each of the fragrance compounds as compared to DPG, representing the change in the control (i.e., just DPG without a fragrance compound before stress and after stress).

A further experiment has as its system salivary cortisol. Kind of experiment: Stress test (timed mathematical and word test), salivary cortisol of panelists exposed to fragrance. Type of experiment: in vivo, human. The conditions noted are these: for % Change in Cortisol (i.e., before versus after stress): panelists exposed during stress test, saliva before and immediately after stress test, DPG solvent, DPG control 10.8%; for effect on salivary cortisol levels as compared to the control (in words): exposed panelists, stress test. Here is the method:
as §1, §2
Table 1-B summarizes the percent change (i.e., before stress versus after stress) in the salivary cortisol levels of panelists exposed to fragrance compounds of the present disclosure during the stress test. In addition, the table illustrates the statistical significance of the change in salivary cortisol levels (i.e., p-value or probability value, P) of each of the fragrance compounds as compared to DPG, representing the change in the control (i.e., just DPG without a fragrance compound before stress and after stress).
as §3
Table 5-B summarizes the percent change (i.e., before stress versus after stress) in the salivary cortisol levels of panelists exposed to fragrance compounds of the present disclosure during the stress test. In addition, the table illustrates the statistical significance of the change in salivary cortisol levels (i.e., p-value or probability value, P) of each of the fragrance compounds as compared to DPG, representing the change in the control (i.e., just DPG without a fragrance compound before stress and after stress).

Turning to `C=C(C)[C@H]1CC=C(C)CC1` [Limonene, limonene], in the experiment on salivary alpha-amylase, the “effect on salivary alpha-amylase levels as compared to the DPG control (in words)” value (shortened to “effect … compared to the DPG control (in words)”) is on record as “limited the increase in salivary alpha-amylase levels” and the “% Change in Alpha-amylase (i.e., before versus after stress)” value (“% Change in Alpha-amylase” for short) was −15.9%. Also, the “% Change in Cortisol (i.e., before versus after stress)” value (“% Change in Cortisol” below) in the experiment with salivary cortisol turned out to be 21.05%.

`CC1=CCC(C(C)CC2CCCC2=O)CC1` (centres unmarked) [2-(2-(4-methyl-3-cyclohexen-1-yl)propyl)cyclopentanone]: in the experiment on salivary alpha-amylase, the “effect … compared to the DPG control (in words)” value is given as “limited the increase in salivary alpha-amylase levels” and the “% Change in Alpha-amylase” value worked out at 33.5%. Also, in the experiment with salivary cortisol, the “effect on salivary cortisol levels as compared to the control (in words)” value is “the levels of salivary cortisol were limited” and the “% Change in Cortisol” value is reported as −10.6%.

In the case of `CC(=O)OC(C)(C)C1CC=C(C)CC1` (centres unmarked) [Terpinyl Acetate, terpinyl acetate], in the experiment with salivary alpha-amylase, the “effect … compared to the DPG control (in words)” value is reported as “limited the increase in salivary alpha-amylase levels” and the “% Change in Alpha-amylase” value is 16.5%. In the experiment with salivary cortisol, the “effect on salivary cortisol levels as compared to the control (in words)” value is “the levels of salivary cortisol were limited” and the “% Change in Cortisol” value is −9.1%.
